Active and inactive are the calls of the source. The calls are words filed in the database; no cut-off is given here.
Legend:
[1] = biological target: Acetylcholinesterase (Electrophorus electricus) (UniProt O42275); assay: The compound was tested in vitro for the inhibition of acetylcholinesterase (AChE) isolated from electric eel at 10e-5 M
[2] = biological target: Acetylcholinesterase (Electrophorus electricus) (UniProt O42275); assay: The compound was tested in vitro for the inhibition of acetylcholinesterase (AChE) isolated from electric eel at 10e-6 M
[3] = test system: GABA-A receptor; anion channel; assay: Displacement of [3H]flunitrazepam from GABA-A benzodiazepine receptor (BZR) of rat brain membranes (NA = no significant activity at 10e-3 M); format: cell membranes, Membrane
[4] = biological target: GABA-A receptor; anion channel; assay: Displacement of [3H]flunitrazepam from GABA-A benzodiazepine receptor (BZR) of rat brain membranes; format: cell membranes, Membrane
[5] = biological target: Muscarinic acetylcholine receptor; assay: The compound was tested in vitro for its binding affinity to muscarinic receptor on rat brain membrane by competitive binding assay using [3H]-QNB
[6] = biological target: Acetylcholinesterase (Electrophorus electricus) (UniProt O42275); assay: The compound was tested in vitro for the inhibition of acetylcholinesterase (AChE) isolated from electric eel at 10e-6 M; NA means no significant activity at 10e-3 M
[7] = biological target: GABA-A receptor; anion channel; assay: Displacement of [3H]flunitrazepam from GABA-A benzodiazepine receptor (BZR) of rat brain membranes (NA = no significant activity); format: cell membranes, Membrane
[8] = biological target: Acetylcholinesterase (Electrophorus electricus) (UniProt O42275); assay: The compound was tested in vitro for the inhibition of acetylcholinesterase (AChE) isolated from electric eel at 10e-5 M; NA means no significant activity at 10e-3 M

Acetylcholinesterase (Electrophorus electricus), sequence (O42275 24-633 limits assumed): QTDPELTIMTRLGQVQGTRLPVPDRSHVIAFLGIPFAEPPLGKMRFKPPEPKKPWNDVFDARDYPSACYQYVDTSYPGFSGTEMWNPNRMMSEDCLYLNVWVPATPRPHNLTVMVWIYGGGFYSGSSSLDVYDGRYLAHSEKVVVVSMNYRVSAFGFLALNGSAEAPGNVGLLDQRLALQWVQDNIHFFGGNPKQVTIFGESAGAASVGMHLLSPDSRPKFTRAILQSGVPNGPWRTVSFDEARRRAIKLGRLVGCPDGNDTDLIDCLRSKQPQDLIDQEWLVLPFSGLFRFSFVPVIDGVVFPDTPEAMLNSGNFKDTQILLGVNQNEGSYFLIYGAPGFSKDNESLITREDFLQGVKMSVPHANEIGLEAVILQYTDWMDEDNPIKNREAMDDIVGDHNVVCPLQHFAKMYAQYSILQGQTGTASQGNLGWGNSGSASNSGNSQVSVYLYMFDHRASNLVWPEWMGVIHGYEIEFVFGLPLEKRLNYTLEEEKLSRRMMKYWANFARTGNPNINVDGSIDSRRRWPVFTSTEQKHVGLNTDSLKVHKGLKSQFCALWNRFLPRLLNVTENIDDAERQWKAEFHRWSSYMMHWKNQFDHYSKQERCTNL

| SMILES | inhibition [1] | inhibition [2] | Ki [3] | Ki [4] | Ki [5] | inhibition [6] | Ki [7] | inhibition [8] |
| --- | --- | --- | --- | --- | --- | --- | --- | --- |
| CCOC(=O)c1cc2cc[nH]c2c[n+]1C.[I-] | 17% | 4% | Not Active |  |  |  |  |  |
| CCCCOC(=O)c1cc2c(c[n+]1C)[nH]c1ccccc12.[I-] | 88% | 46% |  | 4.6 µM | 0.5 µM |  |  |  |
| CC(C)OC(=O)c1cc2c(c[n+]1C)[nH]c1ccccc12.[I-] | 62% | 14% |  | 4.1 µM | 0.5 µM |  |  |  |
| COC(=O)c1cc2c(cn1)[nH]c1ccccc12 [BETA-CCM] |  |  |  |  |  | inactive | 0.003 µM | inactive |
| CCCOC(=O)c1cc2c(c[n+]1C)[nH]c1ccccc12.[I-] | 80.1% | 34.9% |  | 0.6 µM | 1 µM |  |  |  |
| CN(C)C(=O)Oc1ccc[n+](C)c1 | 93% | 59% |  |  |  |  |  |  |
| COC(=O)c1cc2c(c[n+]1C)[nH]c1ccccc12 | 43.1% | 7.2% |  | 1.4 µM | 3.1 µM |  |  |  |
| C[n+]1ccc2c(c1)[nH]c1ccccc12 [NORMELINONINE F] | 41.2% | 7.6% | Not Active |  |  |  |  |  |
| CCOC(=O)c1cc2c(c[n+]1C)[nH]c1ccccc12.[I-] | 60.9% | 13.7% |  | 3.2 µM | 0.7 µM |  |  |  |
| CNC(=O)c1cc2c(c[n+]1C)[nH]c1ccccc12.[I-] | 7.4% | 1.3% |  | 0.6 µM | 27 µM |  |  |  |

From ChEMBL document CHEMBL1127171, “N-2 methylated quaternary derivatives of -carboline-3-carboxylates inhibit acetylcholinesterase in vitro” (Bioorg Med Chem Lett, 1993)
